Structures can show the parent of a compound that is named as a salt.
Experiments:
[1] = biological target: T1, Integrin alpha-IIb/beta-3 (Homo sapiens, UniProt P08514+P05106); assay: Inhibition of arachidonic acid-induced platelet aggregation
[2] = biological target: T1, Integrin alpha-IIb/beta-3; assay: Inhibition of collagen-induced platelet aggregation
[3] = biological target: T1, Integrin alpha-IIb/beta-3; assay: Inhibition of thrombin-induced platelet aggregation at 50 uM

T1 sequence (P05106 27-788 limits assumed): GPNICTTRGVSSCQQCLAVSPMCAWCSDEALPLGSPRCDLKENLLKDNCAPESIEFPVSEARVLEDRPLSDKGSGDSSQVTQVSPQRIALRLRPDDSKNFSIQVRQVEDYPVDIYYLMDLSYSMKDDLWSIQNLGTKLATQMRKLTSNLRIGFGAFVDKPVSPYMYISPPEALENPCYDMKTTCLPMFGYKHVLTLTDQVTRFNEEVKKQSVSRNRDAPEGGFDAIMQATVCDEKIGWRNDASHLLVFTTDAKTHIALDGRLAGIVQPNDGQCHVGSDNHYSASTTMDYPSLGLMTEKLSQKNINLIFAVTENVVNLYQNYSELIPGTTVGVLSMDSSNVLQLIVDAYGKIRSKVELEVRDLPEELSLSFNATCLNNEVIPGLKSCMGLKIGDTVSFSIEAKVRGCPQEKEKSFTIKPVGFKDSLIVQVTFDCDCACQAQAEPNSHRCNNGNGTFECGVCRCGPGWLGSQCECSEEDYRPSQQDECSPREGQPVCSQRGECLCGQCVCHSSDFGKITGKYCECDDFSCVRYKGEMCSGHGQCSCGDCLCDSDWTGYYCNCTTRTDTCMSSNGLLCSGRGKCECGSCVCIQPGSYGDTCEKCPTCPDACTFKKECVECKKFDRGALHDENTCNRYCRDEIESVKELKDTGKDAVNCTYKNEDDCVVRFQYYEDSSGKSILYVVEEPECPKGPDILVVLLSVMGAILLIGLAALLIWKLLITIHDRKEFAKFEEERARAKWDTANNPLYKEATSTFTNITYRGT
T1 sequence (P08514 32-887 limits assumed): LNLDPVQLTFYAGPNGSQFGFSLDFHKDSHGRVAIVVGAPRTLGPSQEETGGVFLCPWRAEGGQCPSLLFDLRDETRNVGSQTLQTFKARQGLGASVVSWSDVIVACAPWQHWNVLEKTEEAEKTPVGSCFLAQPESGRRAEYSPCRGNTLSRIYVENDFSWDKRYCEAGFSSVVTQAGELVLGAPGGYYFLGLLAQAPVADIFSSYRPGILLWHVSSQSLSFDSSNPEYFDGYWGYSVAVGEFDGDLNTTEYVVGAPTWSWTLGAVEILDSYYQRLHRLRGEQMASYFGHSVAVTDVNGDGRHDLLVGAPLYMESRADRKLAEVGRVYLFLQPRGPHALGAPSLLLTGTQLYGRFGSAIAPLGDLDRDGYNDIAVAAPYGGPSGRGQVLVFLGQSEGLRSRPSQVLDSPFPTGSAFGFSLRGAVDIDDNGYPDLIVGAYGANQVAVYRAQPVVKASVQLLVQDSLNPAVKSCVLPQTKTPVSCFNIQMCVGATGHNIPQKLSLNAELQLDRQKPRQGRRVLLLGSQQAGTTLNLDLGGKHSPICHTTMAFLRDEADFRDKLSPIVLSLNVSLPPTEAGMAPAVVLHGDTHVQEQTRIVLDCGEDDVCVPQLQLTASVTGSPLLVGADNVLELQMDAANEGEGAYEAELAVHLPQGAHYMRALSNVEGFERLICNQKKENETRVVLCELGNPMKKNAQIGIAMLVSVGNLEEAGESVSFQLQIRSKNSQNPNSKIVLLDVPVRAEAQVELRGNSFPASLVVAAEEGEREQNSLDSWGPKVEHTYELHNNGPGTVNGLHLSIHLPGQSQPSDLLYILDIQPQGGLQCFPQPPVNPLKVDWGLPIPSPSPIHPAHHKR
T1 sequence (P08514 891-1039 limits assumed): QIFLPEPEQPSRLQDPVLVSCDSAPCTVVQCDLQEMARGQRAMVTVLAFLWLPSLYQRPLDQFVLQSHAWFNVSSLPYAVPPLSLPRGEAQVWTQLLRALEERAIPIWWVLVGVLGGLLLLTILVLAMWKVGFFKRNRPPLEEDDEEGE

An IC50 [1] of 12 µM and an IC50 [2] of 3 µM were found for `O=C(NCCCN1CCCCC1)c1cnn(-c2nc(-c3cccc(C(F)(F)F)c3)cs2)c1C(F)(F)F` [5-Trifluoromethyl-1-[4-(3-trifluoromethyl-phenyl)-thiazol-2-yl]-1H-pyrazole-4-carboxylic acid (3-piperidin-1-yl-propyl)-amide] in this work.

An IC50 [3] of 11.2 µM was found for `NCCNC(=O)c1cnn(-c2nc(-c3cccc(C(F)(F)F)c3)cs2)c1C(F)(F)F` [5-Trifluoromethyl-1-[4-(3-trifluoromethyl-phenyl)-thiazol-2-yl]-1H-pyrazole-4-carboxylic acid (2-amino-ethyl)-amide; hydrochloride] in this work.

An IC50 [1] of 5 µM and an IC50 [2] greater than 100 µM were found for `CC(=O)Oc1ccccc1C(=O)O` [2-(acetyloxy)benzoic acid] in this work.

An IC50 [1] of 4.1 µM and an IC50 [2] of 3.5 µM were found for `CCCNCCCNC(=O)c1cnn(-c2nc(-c3cccc(C(F)(F)F)c3)cs2)c1C(F)(F)F` [5-Trifluoromethyl-1-[4-(3-trifluoromethyl-phenyl)-thiazol-2-yl]-1H-pyrazole-4-carboxylic acid (3-propylamino-propyl)-amide] in this work.

An IC50 [1] of 2.1 µM and an IC50 [2] of 3.5 µM were found for `CCN(CC)CCCNC(=O)c1cnn(-c2nc(-c3cccc(C(F)(F)F)c3)c(Br)s2)c1C(F)(F)F` [1-[5-Bromo-4-(3-trifluoromethyl-phenyl)-thiazol-2-yl]-5-trifluoromethyl-1H-pyrazole-4-carboxylic acid (3-diethylamino-propyl)-amide] in this work.

An IC50 [1] of 4.5 µM and an IC50 [2] of 0.1 µM were found for `NCCCCNC(=O)c1cnn(-c2nc(-c3cccc(C(F)(F)F)c3)cs2)c1C(F)(F)F` [5-Trifluoromethyl-1-[4-(3-trifluoromethyl-phenyl)-thiazol-2-yl]-1H-pyrazole-4-carboxylic acid (4-amino-butyl)-amide; hydrochloride] in this work.

An IC50 [1] of 2.4 µM was found for `COc1ccc(CCNC(=O)C(CC(=O)O)NC(=O)CCCCCCCNC(=N)N)cc1` (stereo unspecified) [SC-47643] in this work.

An IC50 [1] of 0.4 µM and an IC50 [2] of 2.5 µM were found for `CCN(CC)CCCNC(=O)c1cnn(-c2nc(-c3cccc(C(F)(F)F)c3)cs2)c1C(F)(F)F` [5-Trifluoromethyl-1-[4-(3-trifluoromethyl-phenyl)-thiazol-2-yl]-1H-pyrazole-4-carboxylic acid (3-diethylamino-propyl)-amide] in this work.

An IC50 [1] of 3.7 µM and an IC50 [2] of 3 µM were found for `NCCCNC(=O)c1cnn(-c2nc(-c3cccc(C(F)(F)F)c3)cs2)c1C(F)(F)F` [5-Trifluoromethyl-1-[4-(3-trifluoromethyl-phenyl)-thiazol-2-yl]-1H-pyrazole-4-carboxylic acid (3-amino-propyl)-amide; hydrochloride] in this work.

— BindingDB's records for doi:10.1021/jm00001a008 (R. W. Johnson Pharmaceutical Research Institute, 1995)
